Measurements from US20240390383A1, “DIOXAZINES AND THEIR USE IN TREATMENT OF GBA-RELATED DISEASES” (ZEVRA DENMARK A/S, priority 2021, published 2024).
Values joined by “and” are separate entries in the source; they are usually repeats but may differ in a detail not shown here. Equal values may be shown once. Marks after values point to notes of the source that are not given here.

Target: T1, GCase (GBA) in human fibroblast cell line GM10915 harboring the L444P GBA mutation (Homo sapiens, UniProt P04062, L483P)
T1 construct: Human fibroblast cell line GM10915 harboring the L444P GBA mutation; host or cells: GM10915 human fibroblasts
T1 sequence (P04062 40-536 L483P): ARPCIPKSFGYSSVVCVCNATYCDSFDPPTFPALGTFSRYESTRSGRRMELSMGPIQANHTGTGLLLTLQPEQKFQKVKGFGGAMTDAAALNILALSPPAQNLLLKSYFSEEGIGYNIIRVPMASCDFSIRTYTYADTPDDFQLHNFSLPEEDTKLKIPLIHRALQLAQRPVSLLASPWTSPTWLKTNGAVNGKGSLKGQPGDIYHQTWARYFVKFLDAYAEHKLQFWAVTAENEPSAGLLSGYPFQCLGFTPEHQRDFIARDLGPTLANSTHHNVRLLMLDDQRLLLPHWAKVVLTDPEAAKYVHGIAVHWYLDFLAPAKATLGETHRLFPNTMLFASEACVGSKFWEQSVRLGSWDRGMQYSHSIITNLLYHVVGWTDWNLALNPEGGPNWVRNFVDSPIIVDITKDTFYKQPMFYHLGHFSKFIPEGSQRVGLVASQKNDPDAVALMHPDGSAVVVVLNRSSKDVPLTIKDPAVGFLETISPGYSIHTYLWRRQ
Assay: GCase activity assay (4-MUG substrate, normalised to crystal violet staining) in L444P GBA fibroblasts
Type: cell-based
Conditions: 5 days exposure; for GBA EC1.5: concentration giving 150% GCase activity (1.5-fold induction), 8-point dose range
Method in brief: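 Patient fibroblasts GM10915 (L444P GBA) exposed to compounds for five days over an 8-point range, with fresh dosing every 2–3 days. Intact-cell GCase measured with 2.5 mM 4-MUG at pH 4.0 for 23 h at 37 °C (ex/em 365/445 nm), normalised to crystal violet, as % of PBS basal; Emax is the maximum reached.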

[1] = maximum percent GCase activity relative to untreated cells in the dose range tested

## N[C@@H]1CN[C@@H](C2=NOCC(CN3CCCCC3)O2)C1 (some centres unmarked) [compound 557]
  GBA EC1.5: 50 µM
[1]
  Emax: 115%

## N[C@@H]1CN[C@H](C2=NOCC(CN3CCCCC3)O2)C1 (some centres unmarked) [compound 596]
  GBA EC1.5: 50 µM
[1]
  Emax: 105%

## C1CCN(CC2CON=C(CC3CCNCC3)O2)CC1 (racemic) [compound 479, rac-5-(piperidin-1-ylmethyl)-3-(piperidin-4-ylmethyl)-5,6-dihydro-1,4,2-dioxazine]
  GBA EC1.5: 35 µM
[1]
  Emax: 184%

## C[C@@]1(C2=NOC[C@@H](CN3CCCCC3)O2)CCCNC1 [compound 883]
  GBA EC1.5: 7 µM
[1]
  Emax: 201%

## NC(=O)N1CCCC(C2=NOCC(CN3CCCCC3)O2)C1 (centres unmarked) [compound 717]
  GBA EC1.5: 50 µM
[1]
  Emax: 111%

## COc1ccc(CC2(C3=NOCC(CN4CCCCC4)O3)CCNCC2)c(C)n1 (centres unmarked) [compound 703]
  GBA EC1.5: 50 µM
[1]
  Emax: 113%

## CN1CC2CC[C@H](C1)N2CC1CON=C(C2(C)CCNCC2)O1 (some centres unmarked) [compound 627]
  GBA EC1.5: 48 µM
[1]
  Emax: 133%

## C1CCN(CC2CON=C(C3CN4CCC3CC4)O2)CC1 (racemic) [compound 644, rac-5-(piperidin-1-ylmethyl)-3-(quinuclidin-3-yl)-5,6-dihydro-1,4,2-dioxazine]
  GBA EC1.5: 5 µM
[1]
  Emax: 264%

## CNC(=O)CN1CCCC(C2=NOCC(CN3CCCCC3)O2)C1 (racemic) [compound 721, rac-N-methyl-2-(3-(5-(piperidin-1-ylmethyl)-5,6-dihydro-1,4,2-dioxazin-3-yl)piperidin-1-yl)acetamide]
  GBA EC1.5: 33 µM
[1]
  Emax: 175%

## OCC1(C2=NOCC(CN3CCCCC3)O2)CCNCC1 (racemic) [compound 722, rac-(4-(5-(piperidin-1-ylmethyl)-5,6-dihydro-1,4,2-dioxazin-3-yl)piperidin-4-yl)methanol]
  GBA EC1.5: 26 µM
[1]
  Emax: 153%

## N[C@H]1CN[C@@H](C2=NOCC(CN3CCCCC3)O2)C1 (some centres unmarked) [compound 564]
  GBA EC1.5: 50 µM
[1]
  Emax: 104%

## C[C@@H]1CNC[C@H]1C1=NOCC(CN2CCCCC2)O1 (relative stereo) [compound 551, rac-rel-trans-3-((3R,4R)-4-methylpyrrolidin-3-yl)-5-(piperidin-1-ylmethyl)-5,6-dihydro-1,4,2-dioxazine]
  GBA EC1.5: 14 µM
[1]
  Emax: 185%

## C1CCN(CC2CON=C([C@]34CCC[C@H]3NCC4)O2)CC1 (some centres unmarked) [compound 558]
  GBA EC1.5: 4 µM
[1]
  Emax: 225%

## CC1NCCC1C1=NOCC(CN2CCCCC2)O1 (racemic) [compound 559, rac-3-(2-methylpyrrolidin-3-yl)-5-(piperidin-1-ylmethyl)-5,6-dihydro-1,4,2-dioxazine]
  GBA EC1.5: 16 µM
[1]
  Emax: 251%

## c1cnn(C2(C3=NOCC(CN4CCCCC4)O3)CCNCC2)c1 (centres unmarked) [compound 848]
  GBA EC1.5: 2 µM
[1]
  Emax: 311%

## CC1ON=C(C2(C)CCNCC2)OC1CN1CCCCC1 (racemic) [compound 531, rac-6-methyl-3-(4-methylpiperidin-4-yl)-5-(piperidin-1-ylmethyl)-5,6-dihydro-1,4,2-dioxazine]
  GBA EC1.5: 7 µM
[1]
  Emax: 282%

## CN1CCC(C2=NOCC(CN3CCCCC3)O2)C1 (racemic) [compound 546, rac-3-(1-methylpyrrolidin-3-yl)-5-(piperidin-1-ylmethyl)-5,6-dihydro-1,4,2-dioxazine]
  GBA EC1.5: 18 µM
[1]
  Emax: 253%

## CC(C)(C1=NOCC(CN2CCCCC2)O1)C1CCNC1 (racemic) [compound 491, rac-5-(piperidin-1-ylmethyl)-3-(2-(pyrrolidin-3-yl)propan-2-yl)-5,6-dihydro-1,4,2-dioxazine]
  GBA EC1.5: 28 µM
[1]
  Emax: 230%

## C1CCN(CC2CON=C(C3C4CNC3C4)O2)CC1 (racemic) [compound 548, rac-3-(2-azabicyclo[2.1.1]hexan-5-yl)-5-(piperidin-1-ylmethyl)-5,6-dihydro-1,4,2-dioxazine]
  GBA EC1.5: 21 µM
[1]
  Emax: 281%

## C1CCN(CC2CON=C([C@]34CNC[C@H]3COC4)O2)CC1 (relative stereo) [compound 494, rac-rel-trans-(3aR,6aR)-3a-(5-(piperidin-1-ylmethyl)-5,6-dihydro-1,4,2-dioxazin-3-yl)hexahydro-1H-furo[3,4-c]pyrrole]
  GBA EC1.5: 18 µM
[1]
  Emax: 307%

## COC1CNCCC1C1=NOCC(CN2CCCCC2)O1 (racemic) [compound 690, rac-3-(3-methoxypiperidin-4-yl)-5-(piperidin-1-ylmethyl)-5,6-dihydro-1,4,2-dioxazine]
  GBA EC1.5: 25 µM
[1]
  Emax: 205%

## CC(=O)N1CCC(C2=NOCC(CN3CCCCC3)O2)CC1 (centres unmarked) [compound 683]
  GBA EC1.5: 50 µM
[1]
  Emax: 113%

## Nc1c(Br)cc(Br)cc1CN[C@H]1CC[C@H](O)CC1 [Ambroxol, reference compound]
  GBA EC1.5: >20* *The 1.5-fold induction criteria was not reached within the tested concentration range μM

## O=C1CCC(C2=NOCC(CN3CCCCC3)O2)CN1 (centres unmarked) [compound 617]
  GBA EC1.5: 50 µM
[1]
  Emax: 113%

## c1sc(C2CCCNC2)nc1C1=NOCC(CN2CCCCC2)O1 (centres unmarked) [compound 876]
  GBA EC1.5: 4 µM
[1]
  Emax: 180%

## CN1CC(C2=NOCC(CN3CCCCC3)N2)CC1=O (centres unmarked) [compound 601]
  GBA EC1.5: 50 µM
[1]
  Emax: 111%

## CN(C)[C@H]1CNC[C@H]1C1=NOCC(CN2CCCCC2)O1 (mixture of isomers) [compound 766, rac-rel-cis-(3R,4R)—N,N-dimethyl-4-(5-(piperidin-1-ylmethyl)-5,6-dihydro-1,4,2-dioxazin-3-yl)pyrrolidin-3-amine]
  GBA EC1.5: 38 µM
[1]
  Emax: 136%

## CN1CCC(C2=NOCC(CN3CCCCC3)O2)CC1 (racemic) [compound 770, rac-3-(1-methylpiperidin-4-yl)-5-(piperidin-1-ylmethyl)-5,6-dihydro-1,4,2-dioxazine]
  GBA EC1.5: 9 µM
[1]
  Emax: 265%

## CC1(C)CNCC1C1=NOCC(CN2CCCCC2)O1 (racemic) [compound 688, rac-3-(4,4-dimethylpyrrolidin-3-yl)-5-(piperidin-1-ylmethyl)-5,6-dihydro-1,4,2-dioxazine]
  GBA EC1.5: 34 µM
[1]
  Emax: 152%

## NC(=O)N1CCC(C2=NOCC(CN3CCCCC3)O2)C1 (centres unmarked) [compound 697]
  GBA EC1.5: 50 µM
[1]
  Emax: 107%

## C1CCN(CC2CON=C(C3(C4CCOCC4)CCNC3)O2)CC1 (racemic) [compound 583, rac-5-(piperidin-1-ylmethyl)-3-(3-(tetrahydro-2H-pyran-4-yl)pyrrolidin-3-yl)-5,6-dihydro-1,4,2-dioxazine]
  GBA EC1.5: 14 µM
[1]
  Emax: 188%

## CC(C)C1ON=C(C2CCN(C)C2)OC1CN1CCCCC1 (racemic) [compound 707, rac-6-isopropyl-3-(1-methylpyrrolidin-3-yl)-5-(piperidin-1-ylmethyl)-5,6-dihydro-1,4,2-dioxazine]
  GBA EC1.5: 4 µM and 2 µM
[1]
  Emax: 249%
  GBA Emax: 230%

## C1CCN(CC2CON=C(C34CCN(CC3)C4)O2)CC1 (racemic) [compound 641, rac-3-(1-azabicyclo[2.2.1]heptan-4-yl)-5-(piperidin-1-ylmethyl)-5,6-dihydro-1,4,2-dioxazine]
  GBA EC1.5: 3 µM
[1]
  Emax: 275%

## C1CCN(CC2CON=C([C@]34CC[C@H]3CNC4)O2)CC1 (relative stereo) [compound 485, rac-rel-trans-3-((1R,5R)-3-azabicyclo[3.2.0]heptan-1-yl)-5-(piperidin-1-ylmethyl)-5,6-dihydro-1,4,2-dioxazine di-2,2,2-trifluoroacetate]
  GBA EC1.5: 25 µM
[1]
  Emax: 174%

## CC1(C2=NOCC(CN3CCCCC3)O2)CNC1 (racemic) [compound 549, rac-3-(3-methylazetidin-3-yl)-5-(piperidin-1-ylmethyl)-5,6-dihydro-1,4,2-dioxazine]
  GBA EC1.5: 36 µM
[1]
  Emax: 232%

## C1CCN(CC2CON=C(C34CCN(CC3)CC4)O2)CC1 (racemic) [compound 642, rac-5-(piperidin-1-ylmethyl)-3-(quinuclidin-4-yl)-5,6-dihydro-1,4,2-dioxazine]
  GBA EC1.5: 3 µM
[1]
  Emax: 282%

## NC1CCC(C2=NOCC(CN3CCCCC3)O2)CC1 (racemic) [compound 611, rac-4-(5-(piperidin-1-ylmethyl)-5,6-dihydro-1,4,2-dioxazin-3-yl)cyclohexan-1-amine]
  GBA EC1.5: 26 µM
[1]
  Emax: 299%

## C[C@@]1(C2=NOC[C@H](CN3CCCCC3)O2)CCCNC1 [compound 882]
  GBA EC1.5: 5 µM
[1]
  Emax: 214%

## CC(=O)N1CCC(C2=NOCC(CN3CCCCC3)O2)C1 (centres unmarked) [compound 674]
  GBA EC1.5: 50 µM
[1]
  Emax: 123%

## CC1(C2=NOCC(CN3CCCCC3)O2)CCCNC1 (racemic) [compound 476, rac-3-(3-methylpiperidin-3-yl)-5-(piperidin-1-ylmethyl)-5,6-dihydro-1,4,2-dioxazine]
  GBA EC1.5: 6 µM
[1]
  Emax: 253%
